In patent US20160228444A1, “NUCLEOSIDE ANALOGS AND USES THEREOF” (Ramot at Tel-Aviv University Ltd., priority 2015, published 2016):
Where a name gives a salt, the structure may show the parent alone. Read-outs that look alike come from different tables or passages of the source.

Tests used:
[1] = system: U251 MG human glioma cells; experiment: FACS viability, annexin V-FITC / PI; type: cell-based; details: AN446 24 h; 200 nM Dox 5 h; combination compared to Dox alone; FIG. 1C
Method: (§1) Cell viability by flow cytometry analysis (FACS) analysis was determined using the Mebcyto apoptosis kit (MBL-Japan). The cell lines 4T1, U251 (2×10^5 cells/well), astrocytes and the cardiomyoblastic cell line H9C2 (5×10^5 cells/well) were seeded in six-well plates. Following treatment they were trypsinized, washed with PBS, resuspended in […] of binding buffer and double-stained with annexin V-FITC and propidium iodide (PI) according to the manufacturer's instructions. The stained cells were subjected to FACS analyses (Calibur cytometer, Becton Dickinson) where 30,000 cells were allowed to flow for each determination point and the percentage of cells in each state (viability or death) was defined by their distribution in fluorescence dot-plots using WinMdi 2.8 software (Scripps Research Institute, La-Jolla, USA).
(§2) The apoptotic effect of AN446, Dox and their combination was evaluated in U251 and 4T1 cancer cells, and in the non-cancerous rat cardiomyoblast cell line (H9C2) and in primary rat astrocytes, using procedures previously described for AN7 [Tarasenko et al., Invest New Drugs 2012, 30:130-143].

[2] = system: murine mammary carcinoma 4T1; experiment: FACS viability, annexin V-FITC / PI; type: cell-based; details: AN446 24 h; 200 nM Dox 5 h; combination compared to Dox alone; FIG. 1C
Method: as §1, §2

HO-1 = HO-1 protein and mRNA in tumor and heart of xenograft mice (Western blot, qRT-PCR); type: in vivo; details: single agent
Method: (§3) Tumors and hearts of the mice were rapidly removed, frozen on dry ice and kept at −70° C. Tissue was then homogenized and RNA and proteins extracted using the NucleoSpin® RNA/Protein kit according to the manufacturer's protocol (Macherey-Nagel, GmbH & Co KG).
(§4) Total RNA ([…]) was primed by oligo dT and reverse-transcribed by Verso cDNA kit according to the manufacturer's protocol (Thermo Scientific). Analyses of qPCR were performed with Kapa Sybr® Fast (Kapa Biosystems) on a Step One Plus thermocycler (Applied Biosystems). The comparative threshold method was used to calculate the relative gene expression. Values were normalized against glyceraldehyde 3-phosphate dehydrogenase (GAPDH). Expression of the GAPDH mRNA in each individual sample was used to normalize the dataset. The sequences of the primers were as follows: […]
(§5) Protein levels in the samples were determined with the BCA protein assay kit (Pierce). The samples were subjected to Western blot analyses. The expression of proteins was visualized using their specified primary antibodies followed by the secondary IgG IRDye® 680DX antibody. Each detected band was quantified using the Odyssey Infrared Imaging System (LI-COR Biosciences) and normalized to the level of actin. The fold increase of a specific protein was determined by the ratio of the band intensity obtained from treated and untreated samples.
The effect of the drugs on the expression of genes associated with cell survival and death was examined by following changes in transcription and protein expression in tissue samples taken from the mice with glioblastoma xenografts. Heme oxygenase (HO-1) is known to play a protective role in the heart, whereas, in many cancers it is expressed and promotes growth and survival of neoplastic cells.

bFGF = bFGF protein and mRNA in tumor and heart of xenograft mice (Western blot, qRT-PCR); type: in vivo; details: single agent
Method: as §3, §4, §5
(§6) The pro-angiogenic factors basic fibroblast growth factor (bFGF) and vascular endothelial growth factor (VEGF) are potent angiogenic stimulators. The expression of bFGF in the tumor and in the heart was evaluated by Western blot and qRT-PCR analyses and expression of VEGF by IHC.

VEGF = VEGF immunohistochemistry in tumor and heart of xenograft mice; type: in vivo; details: FIG. 4F
Method: as §6

c-Myc = c-Myc and p-c-Myc (Thr 58) Western blot in tumor and heart of xenograft mice; type: in vivo
Method: as §5
The c-Myc protein is an important regulator of normal cell physiology and in tumor cells it plays an important role in activating oncogenic pathways [Soucek & Evan, Curr Opin Genet Dev 2010, 20:91-95].

fibrous collagen = experiment: Fibrosis in tumor, heart and kidney of U251 xenograft mice (Picrosirius Red / Fast Green); type: in vivo; details: single agent
Method: (§7) AN446 was tested in vivo using a xenograft of glioblastoma (U251 cells) in mice.

TNF-α = experiment: Serum TNF-α in U251 xenograft mice (ELISA); type: in vivo; details: single agent, FIG. 8C
Method: as §7

MDA-231 cells = experiment: Median-effect drug interaction, Hoechst viability, 72 h; type: cell-based, human; details: Homo sapiens
Method: (§8) The ratios of the drug combination were based on the ratio of their IC50 of each drug alone. Cell viability was determined by MTT assay, as described hereinabove. The drugs were added to the cells and incubated for 72 h.
(§9) Drug interaction in adherent cells was evaluated as above except that the viability was determined by Hoechst assay.

[3] = system: NCI-N87 gastric carcinoma cells; experiment: as above; type: cell-based, human; details: Homo sapiens
Method: as §8, §9

T47D cells = experiment: as above; type: cell-based, human
Method: as §8, §9

HUT-78 CTCL cells = experiment: Median-effect drug interaction, MTT viability, 72 h; type: cell-based, human
Method: (§10) Cell viability was determined by an MTT cell viability assay after 48 hours. MyLa cells (10^4 cells/well), Hut78 cells (5×10^3 cells/well) and normal PBLs (10^5 cells/well) were seeded in 96 well-plates. The PBLs were activated with 40 μg/10^6 cells of phytohemagglutinine (PHA) for 24 h before the experiment.
as §8

PBL = experiment: as above; type: cell-based; details: Homo sapiens
Method: as §10, §8

[4] = system: U251 human glioblastoma xenograft; experiment: Glioblastoma xenograft model (survival, body weight, tumor volume, tumor weight, Ki-67)
Method: Xenograft of glioblastoma: 8- to 10-week-old male Hsd athymic FOXN (Harlan, Jerusalem, Israel) were inoculated sc in the flanks with 5×10^6 U251 cells. Tumor length (L) and width (W) were measured with a caliper twice weekly. Tumor volumes were calculated according to the formula: (L×W2)/2. When the tumor was established (volume of 50-100 mm^3) the mice were randomly divided into six groups treated with: vehicle control (saline); ip Dox 4 mg/kg once weekly; po AN446 25 mg/kg thrice a week; po AN7 50 mg/kg thrice a week; combination of AN446+Dox (4 mg/kg ip Dox once a week and 25 mg/kg po AN446 thrice a week); AN7+Dox (4 mg/kg ip Dox once a week and 50 mg/kg po AN7 thrice weekly). Untreated, non-bearing tumor naive mice were maintained under the same conditions. The experiment was terminated after 25 treatment days, the mice were sacrificed under CO2 and their tumors and hearts were removed, weighed and divided into parts dedicated for immunohistochemistry (IHC) and the rest were frozen (−80° C.) for Western blot and Quantitative PCR (qRT-PCR) analyses.
Inactivation of avidin-biotin nonspecific binding was prevented by a blocking kit, according to the manufacturer's protocol (Vector Laboratories). […] The secondary antibody was biotin conjugated goat anti-rabbit or anti-mouse IgG. Slides were then stained with the ABC peroxidase system, developed with diaminobenzidine (DAB) (Vector Laboratories) and counterstained with hematoxylin (Bio-Optica, Milano, Italy). The slides were examined using an Olympus BX 52 light microscope, and images were taken with an Olympus DP50 digital camera system.
Mice were implanted subcutaneously with U251 cells and when the tumors reached 50-100 mm^3 treatments were initiated. Survival was evaluated by the Kaplan-Meier end-product analysis, where treatment failure (the experimental end points) was a loss of ˜20% body weight, or a tumor volume of >1 cm^3.

For `COc1cccc2c1C(=O)c1c(O)c3c(c(O)c1C2=O)C[C@@](O)(C(=O)CO)C[C@@H]3O[C@H]1C[C@H](N)[C@H](O)[C@H](C)O1` [Dox, Doxorubicin hydrochloride], which “viability / mortality of U251 cells” value [1] is on record?
Its value is “significantly reduced the viability”.

And the “viability / mortality of 4T1 cells” value [2]?
The value was “significantly reduced the viability”.

And the “HO-1 mRNA in the heart” value (HO-1; heart)?
Its value is “decreased HO-1 mRNA”.

What about the “HO-1 expression in the heart (decrease)” value (HO-1; heart, FIGS. 4D, 4E) of the same molecule?
The value was about 5 fold.

And the “tumor HO-1 protein expression (decrease)” value (HO-1; tumor, FIGS. 4A, 4B)?
The value was “unchanged”.

What about the “expression of mouse bFGF protein in the heart” value (bFGF; heart, FIG. 4D) of the same molecule?
Its value is “decreased significantly”.

And the “bFGF mRNA in the tumor” value (bFGF; tumor, FIG. 6)?
The value was “significantly reduced the bFGF mRNA”.

And the “expression of bFGF in tumors” value (bFGF; tumor, FIGS. 4A, 4B)?
Its value is “decreased significantly”.

And the “VEGF expression in the heart” value (VEGF)?
The value was “reduced”.

What about the “c-Myc protein expression in the hearts” value (c-Myc; heart, FIG. 5B) of the same molecule?
Its value is “repressed”.

What about the “c-Myc protein expression in tumors” value (c-Myc; tumor, FIG. 5A) of the same molecule?
Its value is “unaffected”.

And the “fibrosis in the heart” value (fibrous collagen; heart, FIGS. 8A-8C)?
Its value is “induced fibrosis”.

And the “fibrosis in the kidneys” value (fibrous collagen; kidneys, FIG. 8A)?
The value was “induced fibrosis”.

What about the “fibrosis in the tumor” value (fibrous collagen; tumor, FIG. 8A) of the same molecule?
The value was “reduced fibrosis”.

What about the “serum levels of TNF-α” value (TNF-α) of the same molecule?
The value was “increased serum levels of TNF-α”.

And the IC50 (MDA-231 cells; MDA-MB-231, MDA-231, Dox in combination with AN446, read-out: Dox com IC50)?
The IC50 was 5.3 nM.

And the IC50 (MDA-231 cells; MDA-MB-231, MDA-231, Dox in combination with SAHA, read-out: Dox com IC50)?
The IC50 was 4.3 nM.

And the IC50 (MDA-231 cells; MDA-MB-231, MDA-231, single agent, read-out: Dox IC50)?
The IC50 was 10.2 nM.

And the IC50 ([3]; NCI-N87, NCI-N87, Dox in combination with AN446, read-out: Dox com IC50)?
The IC50 was 8.5 ± 1 nM.

What about the IC50 ([3]; NCI-N87, NCI-N87, single agent, read-out: Dox IC50) of the same molecule?
Its IC50 is 30 ± 1.3 nM.

And the IC50 (T47D cells; Homo sapiens, Dox in combination with AN446, read-out: Dox com IC50)?
The IC50 was 7.6 nM.

What about the IC50 (T47D cells; Homo sapiens, Dox in combination with SAHA, read-out: Dox com IC50) of the same molecule?
The IC50 was 5.2 nM.

What about the IC50 (T47D cells; Homo sapiens, single agent, read-out: Dox IC50) of the same molecule?
Its IC50 is 19 nM.

And the IC50 (T47D cells; single agent, hydrochloride, read-out: Dox IC50)?
The IC50 was 19.1 nM.

What about the IC50 (HUT-78 CTCL cells; HUT-78, single agent, hydrochloride, read-out: Dox IC50) of the same molecule?
The IC50 was 31 nM.

And the IC50 (HUT-78 CTCL cells; Homo sapiens, HuT78, HUT-78, Dox in combination with AN446, read-out: Dox com IC50)?
Its IC50 is 11 nM.

And the IC50 (HUT-78 CTCL cells; Homo sapiens, HuT78, HUT-78, Dox in combination with SAHA, read-out: Dox com IC50)?
Its IC50 is 12 nM.

And the IC50 (HUT-78 CTCL cells; Homo sapiens, HuT78, HUT-78, single agent, read-out: Dox IC50)?
The IC50 was 30.8 nM.

And the IC50 (PBL; Dox in combination with AN446, read-out: Dox com IC50)?
Its IC50 is 15 nM.

What about the IC50 (PBL; Dox in combination with SAHA, read-out: Dox com IC50) of the same molecule?
Its IC50 is 20 nM.

What about the IC50 (PBL; single agent, read-out: Dox IC50) of the same molecule?
Its IC50 is 70 nM.

And the body weight ([4]; Dox 4 mg/kg ip once a week, from day 13)?
Its body weight is “drastic decrease in body weight”.

And the treatment failure ([4]; Dox 4 mg/kg ip once a week, weight loss contributing)?
The treatment failure was 60%.

What about the “Ki-67 positive cells in tumors” value ([4]; single agent vs vehicle, FIGS. 3E, 3F) of the same molecule?
The value was “considerably more Ki-67 positive cells were detected in tumors of the vehicle-treated mice”.

What about the “survival of mice until end of experiment (day 25)” value ([4]; single agent: AN446 25 mg/kg or AN7 50 mg/kg po thrice weekly, Dox 4 mg/kg ip once a week, FIG. 3A) of the same molecule?
Its value is 40%.
